These results are taken from patent publication US20190375708A1 (VenatoRx Pharmaceuticals, Inc., priority 2018, published 2019).

One may read the CC50 as the concentration that lowers cell viability or growth by half. In general, EC50 refers to the concentration giving half of the maximal effect.

The nature of data set [1]: In vitro cytotoxicity assay (MTT cell viability) in HepG2 cells. The format is cell-based, human. The settings on record: human. A digest of the protocol: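 HepG2 cells incubated 7 days at 37 °C, 5% CO2 with compounds from 30 μM to 1.0 nM (8 half-log dilutions). Viability read as MTT formazan absorbance at 492 nm, normalised to vehicle controls; CC50 from 4-parameter non-linear regression.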

Data set [2] deals with HBV replication in HepAD38 cells. The experiment in a line: Anti-HBV replication assay in HepAD38 cells (QPCR of extracellular HBV DNA). In kind it is cell-based, HBV (genotype D, serotype ayw). The settings on record: Hepatitis B virus, 168 h, 7 days incubation, extracellular HBV DNA by QPCR, read-out: Anti-HBV EC50. In short, it runs like this:
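Stably transfected HepG2-derived HepAD38 cells express HBV (genotype D, ayw) once tetracycline is withdrawn. Compounds act for 7 days, after which secreted HBV DNA is quantified by QPCR relative to DMSO-treated wells.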

As for `Cc1noc([C@H](C)NC(=O)C(=O)c2c(Cl)c(C(=O)Nc3ccc(F)c(F)c3)c3n2CCC3)n1` [Example 568, (S)-6-chloro-N-(3,4-difluorophenyl)-5-(2-((1-(3-methyl-1,2,4-oxadiazol-5-yl)ethyl)amino)-2-oxoacetyl)-2,3-dihydro-1H-pyrrolizine-7-carboxamide], the CC50 at 7 days in data set [1] is 5000 to 30000 nM. Also, the EC50 in data set [2] was below 50 nM.
The like results for `Nc1ncc(CNC(=O)C(=O)c2c(Cl)c(C(=O)Nc3ccc(F)c(F)c3)c3n2CCC3)s1` [Example 569, 5-(2-(((2-aminothiazol-5-yl)methyl)amino)-2-oxoacetyl)-6-chloro-N-(3,4-difluorophenyl)-2,3-dihydro-1H-pyrrolizine-7-carboxamide] were, in that order, above 30000 nM and below 50 nM.
The like results for `O=C(N[C@H]1COC[C@@H]1O)C(=O)c1c(Cl)c(C(=O)Nc2ccc(F)c(F)c2)c2n1CCC2` [Example 570, 6-chloro-N-(3,4-difluorophenyl)-5-(22-(((3S,4R)-4-hydroxytetrahydrofuran-3-yl)amino)-2-oxoacetyl)-2,3-dihydro-1H-pyrrolizine-7-carboxamide] were, in that order, above 30000 nM and below 50 nM.
`O=C(N[C@H]1CCC[C@H]1O)C(=O)c1c(Cl)c(C(=O)Nc2ccc(F)c(F)c2)c2n1CCC2` [Example 571, 6-chloro-N-(3,4-difluorophenyl)-5-(2-(((1S,2R)-2-hydroxycyclopentyl)amino)-2-oxoacetyl)-2,3-dihydro-1H-pyrrolizine-7-carboxamide] gave a CC50 at 7 days in data set [1] above 30000 nM. Further, the EC50 in data set [2] fell in the range of 50 to 499 nM.
The like results for `Cc1cc(NC(=O)c2c(Cl)c(C(=O)C(=O)N[C@H]3COC[C@@H]3O)n3c2CCC3)ccc1F` [Example 572, 6-chloro-N-(4-fluoro-3-methylphenyl)-5-(2-(((3S,4R)-4-hydroxytetrahydrofuran-3-yl)amino)-2-oxoacetyl)-2,3-dihydro-1H-pyrrolizine-7-carboxamide] were, in that order, above 30000 nM and below 50 nM.
Compound `Cc1cc(NC(=O)c2c(Cl)c(C(=O)C(=O)NC(C)(C)C(F)(F)F)n3c2CCC3)cnc1F` [Example 573, 6-chloro-N-(6-fluoro-5-methylpyridin-3-yl)-5-(2-oxo-2-((1,1,1-trifluoro-2-methylpropan-2-yl)amino)acetyl)-2,3-dihydro-1H-pyrrolizine-7-carboxamide] returned a CC50 at 7 days in data set [1] above 30000 nM. Also, in data set [2], the EC50 fell in the range of 50 to 499 nM.
The like results for `Cc1cc(NC(=O)c2c(Cl)c(C(=O)C(=O)N[C@@H](C)C(F)(F)F)n3c2CCC3)cnc1F` [Example 574, (S)-6-chloro-N-(6-ffluoro-5-methylpyridin-3-yl)-5-(2-oxo-2-((1,1,1-trifluoropropan-2-yl)amino)acetyl)-2,3-dihydro-1H-pyrroliine-7-carboxamide] were, in that order, 5000 to 30000 nM and 500 to 1000 nM.
The like results for `Cc1cc(NC(=O)c2c(Cl)c(C(=O)C(=O)NC(C)(C)CO)n3c2CCC3)cnc1F` [Example 575, 6-chloro-N-(6-fluoro-5-methylpyridin-3-yl)-5-(2-((1-hydroxy-2-methylpropan-2-yl)amino)-2-oxoacetyl)-2,3-dihydro-1H-pyrrolizine-7-carboxamide] were, in that order, above 30000 nM and 500 to 1000 nM.
In the same order, the values of `Cc1cc(NC(=O)c2c(Cl)c(C(=O)C(=O)N[C@H](C)C(F)(F)F)n3c2CCC3)cnc1F` [Example 576, (R)-6-chloro-N-(6-fluoro-5-methylpyridin-3-yl)-5-(2-oxo-2-((1,1,1-trifluoropropan-2-yl)amino)acetyl)-2,3-dihydro-1H-pyrrolizine-7-carboxamide] are 5000 to 30000 nM and 50 to 499 nM.
Compound `Cc1cc(NC(=O)c2c(Cl)c(C(=O)C(=O)NCC(C)(C)CO)n3c2CCC3)cnc1F` [Example 577, 6-chloro-N-(6-fluoro-5-methylpyridin-3-yl)-5-(2-((3-hydroxy-2,2-dimethylpropyl)amino)-2-oxoacetyl)-2,3-dihydro-1H-pyrrolizine-7-carboxamide] displayed a CC50 at 7 days in data set [1] above 30000 nM. Further, the EC50 in data set [2] is above 1000 nM.
